Test results taken from US8217035B2, “Pyrimidine derivatives used as PI-3-kinase inhibitors” (Novartis AG, priority 2006, dated 2012).
Where two headings read alike, the source gives them in different places.

Key:
PI3 kinase alpha = PI3 kinase alpha (Homo sapiens, UniProt P42336); assay: PI3K ATP depletion assay (Biological Method 1, Assay 3; KinaseGlo luminescence); type: biochemical; conditions: ATP depletion assay, read-out: PI3 Kinase Alpha, IC50
In short: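 Compound in DMSO was mixed with 10 nM PI3 kinase and 5 μg/mL phosphatidylinositol, and the reaction was started with 2 μM ATP. It ran to about 50% ATP depletion and was stopped with KinaseGlo.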

[1] = test system: pSer473 Akt in A2780 cells; assay: pSer473 Akt assay to monitor PI3K pathway in A2780 cells (Biological Method 2, MSD); type: cell-based; conditions: Homo sapiens, inhibition of Akt phosphorylation
Procedure: In this method, an assay for measuring the PI3K-mediated pSer473-Akt status after treatment with representative inhibitor compounds of the invention is described.
A2780 cells were cultured in DMEM supplemented with 10% FBS. L-glutamine, sodium pyruvate, and antibiotics. Cells were plated in the same medium at a density of 15,000 cells per well into 96 well tissue culture plates, with outside wells vacant, and allowed to adhere overnight.
Test compounds supplied in DMSO were diluted further into DMSO at 500 times the desired final concentrations before dilution into culture media to 2 times the final concentrations. Equal volumes of 2× compounds were added to the cells in 96 well plates and incubated at 37° C. for one hour. The media and compounds were then removed, the plates chilled and cells lysed in a lysis buffer (150 mM NaCl, 20 mM Tris pH 7.5, 1 mM EDTA, 1 mM EGTA, 1% Triton X-100) supplemented with phosphatase and protease inhibitors. After thorough mixing, lysates were transferred to both pSer473Akt and total Akt assay plates from Meso Scale Discovery (MSD), and incubated overnight with shaking at 4° C.
The assays were read on a SECTOR Imager 6000 instrument (Meso Scale Discovery). Ratios of the signal from pSer473Akt and total Akt assays were used to correct for any variability and the percent inhibition of pSer473Akt from the total signal seen in cells treated with compound versus DMSO alone was calculated and used to determine EC50 values for each compound.

[2] = test system: A2780 ovarian cancer cells; assay: Cellular proliferation in A2780 cells, Cell Titer Glo (Biological Method 4); type: cell-based; conditions: Homo sapiens
In short: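 Viability after 72 h compound exposure (37 °C, 5% CO2) was read by Cell Titer Glo and an EC50 derived, each condition in duplicate. A2780 ovarian cells had been plated at 1,000 per well in DMEM/10% FBS at least 2 h beforehand.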

[3] = ovarian cancer cell line A2780, Biological Method 4

PI3 kinase alpha, sequence (P42336 whole entry): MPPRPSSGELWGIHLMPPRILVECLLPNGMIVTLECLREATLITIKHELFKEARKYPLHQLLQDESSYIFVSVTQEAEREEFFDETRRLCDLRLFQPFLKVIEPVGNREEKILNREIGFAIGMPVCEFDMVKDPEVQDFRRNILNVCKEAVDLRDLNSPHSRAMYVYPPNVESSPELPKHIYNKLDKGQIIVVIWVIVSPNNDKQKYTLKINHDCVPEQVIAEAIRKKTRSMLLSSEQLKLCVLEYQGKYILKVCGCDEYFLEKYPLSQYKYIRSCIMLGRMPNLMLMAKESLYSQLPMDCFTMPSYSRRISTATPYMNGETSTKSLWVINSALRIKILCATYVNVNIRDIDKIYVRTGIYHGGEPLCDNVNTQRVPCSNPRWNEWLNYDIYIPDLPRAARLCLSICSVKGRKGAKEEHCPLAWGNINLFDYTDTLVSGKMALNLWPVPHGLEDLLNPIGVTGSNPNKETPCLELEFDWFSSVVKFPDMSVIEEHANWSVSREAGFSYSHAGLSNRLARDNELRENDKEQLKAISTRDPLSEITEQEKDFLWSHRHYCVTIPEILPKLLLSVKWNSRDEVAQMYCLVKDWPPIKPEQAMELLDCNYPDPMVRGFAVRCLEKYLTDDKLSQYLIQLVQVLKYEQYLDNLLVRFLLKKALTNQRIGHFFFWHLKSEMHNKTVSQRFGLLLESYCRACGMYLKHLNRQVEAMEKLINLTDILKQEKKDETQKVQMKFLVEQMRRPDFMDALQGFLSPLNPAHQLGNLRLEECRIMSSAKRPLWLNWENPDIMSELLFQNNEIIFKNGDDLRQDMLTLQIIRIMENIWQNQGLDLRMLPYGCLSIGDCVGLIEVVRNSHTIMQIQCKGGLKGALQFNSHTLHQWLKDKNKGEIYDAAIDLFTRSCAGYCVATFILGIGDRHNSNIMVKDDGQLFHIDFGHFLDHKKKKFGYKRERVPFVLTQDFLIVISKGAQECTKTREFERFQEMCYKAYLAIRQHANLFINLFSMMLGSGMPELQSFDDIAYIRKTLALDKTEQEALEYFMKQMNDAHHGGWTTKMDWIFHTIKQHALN
PI3 kinase alpha, sequence (P27986 whole entry partner): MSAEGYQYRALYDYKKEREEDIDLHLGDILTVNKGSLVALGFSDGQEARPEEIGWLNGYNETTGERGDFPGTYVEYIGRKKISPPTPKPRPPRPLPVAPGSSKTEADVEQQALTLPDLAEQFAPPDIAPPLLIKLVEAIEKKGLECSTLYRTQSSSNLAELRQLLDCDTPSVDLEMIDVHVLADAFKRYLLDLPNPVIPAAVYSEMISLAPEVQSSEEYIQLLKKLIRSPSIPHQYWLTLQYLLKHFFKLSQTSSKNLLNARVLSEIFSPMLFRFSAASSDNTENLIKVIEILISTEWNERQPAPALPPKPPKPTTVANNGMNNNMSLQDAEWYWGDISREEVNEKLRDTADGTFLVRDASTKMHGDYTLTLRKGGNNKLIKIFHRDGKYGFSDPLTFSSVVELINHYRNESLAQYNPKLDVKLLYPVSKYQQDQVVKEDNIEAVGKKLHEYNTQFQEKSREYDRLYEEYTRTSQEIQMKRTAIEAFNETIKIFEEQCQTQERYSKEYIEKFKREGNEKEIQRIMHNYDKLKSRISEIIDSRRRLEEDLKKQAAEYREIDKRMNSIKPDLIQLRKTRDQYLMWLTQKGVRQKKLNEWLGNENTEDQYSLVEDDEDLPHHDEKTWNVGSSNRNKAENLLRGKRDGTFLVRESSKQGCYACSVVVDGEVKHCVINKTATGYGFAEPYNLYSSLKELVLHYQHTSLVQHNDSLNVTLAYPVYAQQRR

Row | SMILES | IC50 (PI3 kinase alpha) [nM] | EC50 ([1]; A2780 cells) [nM] | EC50 ([2]; ovarian cancer cell line A2780) [nM] | IC50 (PI3 kinase alpha; Biological Method 1) [nM] | EC50 ([1]; A2780, Biological Method 2) [nM] | EC50 [2, 3] [nM] | EC50 ([1]; A2780) [nM]
1 | CC(C)OC(=O)N1CCC[C@H](Oc2cc(-c3cnc(N)nc3N)nc(N3CCOCC3)n2)C1 [Compound 167] | < 1000 | < 1000 | < 10000 |  |  |  | 
2 | CS(=O)(=O)c1ccccc1Nc1cc(-c2ccc(N)nc2)nc(N2CCOCC2)n1 [Compound 141] | < 1000 | < 1000 | < 10000 |  |  |  | 
3 | CS(=O)(=O)c1ccnc(Nc2cc(-c3cnc(N)cc3C(F)(F)F)nc(N3CCOCC3)n2)c1 [Compound 109] | < 1000 | < 1000 | < 10000 |  |  |  | 
4 | Nc1ncc(-c2cc(Nc3ccc4cn[nH]c4c3)nc(N3CCOCC3)n2)cn1 [Compound 135] | < 1000 | < 1000 | < 1000 |  |  |  | 
5 | COC(=O)N1CCC(Oc2cc(-c3cnc(N)cc3C(F)(F)F)nc(N3CCOCC3)n2)CC1 [Compound 117] | < 1000 | < 1000 | < 10000 |  |  |  | 
6 | COc1ccc(Nc2cc(-c3cnc(N)cc3C(F)(F)F)nc(N3CCOCC3)n2)cn1 [Compound 199] |  |  |  | < 1000 | < 1000 | < 10000 | 
7 | Nc1ncc(-c2cc(OC3CCN(C(=O)OC4CCCC4)CC3)nc(N3CCOCC3)n2)c(N)n1 [Compound 97] | < 1000 | < 1000 | < 1000 |  |  |  | 
8 | Nc1ncc(-c2cc(-c3cnc(N)nc3C(F)(F)F)nc(N3CCOCC3)n2)c(C(F)(F)F)n1 [Compound 121] | < 1000 | < 1000 | < 1000 |  |  |  | 
9 | CC(C)(C)OC(=O)N1CCC(Oc2cc(-c3cnc(N)nc3N)nc(N3CCOCC3)n2)CC1 [Compound 28] | < 1000 | < 1000 | < 1000 |  |  |  | 
10 | CCN(CC)Cc1cnc(Nc2cc(-c3cnc(N)cc3C(F)(F)F)nc(N3CCOCC3)n2)s1 [Compound 12] | < 1000 | < 1000 | < 10000 |  |  |  | 
11 | Nc1ncc(-c2cc(Nc3ccc4c(c3)OCCO4)nc(N3CCOCC3)n2)c(C(F)(F)F)n1 [Compound 164] | < 1000 | < 1000 | < 1000 |  |  |  | 
12 | CS(=O)(=O)c1ccc(Nc2cc(-c3cnc(N)cc3C(F)(F)F)nc(N3CCOCC3)n2)cn1 [Compound 128] | < 1000 | < 1000 | < 10000 |  |  |  | 
13 | Nc1cc(C(F)(F)F)c(-c2cc(N3CCOCC3Cc3ccccc3)nc(N3CCOCC3)n2)cn1 (stereo not drawn) [Compound 113] | < 1000 | < 1000 | < 10000 |  |  |  | 
14 | CS(=O)(=O)c1ccc(Nc2cc(-c3cnc(N)cc3C(F)(F)F)nc(N3CCOCC3)n2)cc1 [Compound 173] | < 1000 | < 1000 | < 10000 |  |  |  | 
15 | Nc1ncc(-c2cc(O[C@H]3CCCN(C(=O)OC4CCCC4)C3)nc(N3CCOCC3)n2)c(N)n1 [Compound 186] | < 1000 | < 1000 | < 10000 |  |  |  | 
16 | NC(=O)c1cccc(Nc2cc(-c3ccc(N)nc3)nc(N3CCOCC3)n2)c1 [Compound 166] | < 1000 | < 1000 | < 10000 |  |  |  | 
17 | CS(=O)(=O)Nc1ncccc1-c1cc(-c2cnc(N)cc2C(F)(F)F)nc(N2CCOCC2)n1 [Compound 145] | < 1000 | < 1000 | < 10000 |  |  |  | 

Row | SMILES | IC50 (PI3 kinase alpha) [nM] | EC50 ([1]; A2780 cells) [nM] | EC50 ([2]; ovarian cancer cell line A2780) [nM] | IC50 (PI3 kinase alpha; Biological Method 1) [nM] | EC50 ([1]; A2780, Biological Method 2) [nM] | EC50 [2, 3] [nM] | EC50 ([1]; A2780) [nM]
18 | Nc1ncc(-c2cc(Nc3ccc4ncccc4c3)nc(N3CCOCC3)n2)cn1 [Compound 46] | < 1000 | < 1000 | < 1000 |  |  |  | 
19 | CS(=O)(=O)c1cccc(-c2cc(-c3cnc(N)cc3C#N)nc(N3CCOCC3)n2)c1 [Compound 92] | < 1000 | < 1000 | < 1000 |  |  |  | 
20 | Nc1ccc(-c2cc(Nc3ccccc3S(N)(=O)=O)nc(N3CCOCC3)n2)cn1 [Compound 187] | < 1000 | < 1000 | < 10000 |  |  |  | 
21 | Nc1cc(C(F)(F)F)c(-c2cc(O[C@@H]3CCOC3)nc(N3CCOCC3)n2)cn1 [Compound 25] | < 1000 | < 1000 | < 10000 |  |  |  | 
22 | Nc1cc(C(F)(F)F)c(-c2cc(-c3cncc(OC4CCNCC4)c3)nc(N3CCOCC3)n2)cn1 [Compound 88] | < 1000 | < 1000 | < 10000 |  |  |  | 
23 | Cc1c(-c2ccc(Nc3ncc(-c4ccccc4)s3)nc2)nc(N2CCOCC2)nc1-c1cnc(N)nc1 [Compound 194] | < 1000 | < 1000 | < 10000 |  |  |  | 
24 | Nc1cc(C(F)(F)F)c(-c2cc(OC3CCOCC3)nc(N3CCOCC3)n2)cn1 [Compound 24] | < 1000 | < 1000 | < 1000 |  |  |  | 
25 | CCc1c(Nc2cnc3ccccc3c2)nc(N2CCOCC2)nc1-c1cnc(N)nc1 [Compound 98] | < 1000 | < 1000 | < 1000 |  |  |  | 
26 | CS(=O)(=O)c1cccc(-c2cc(-c3cnc(N)[nH]c3=O)nc(N3CCOCC3)n2)c1 [Compound 105] | < 1000 | < 1000 | < 1000 |  |  |  | 
27 | CC(C)N1CCC(Oc2ccc(Nc3cc(-c4cnc(N)nc4N)nc(N4CCOCC4)n3)cn2)CC1 [Compound 68] | < 1000 | < 1000 | < 1000 |  |  |  | 
28 | CC(C)N1CCC(Oc2ccc(Nc3cc(-c4cnc(N)cc4C(F)(F)F)nc(N4CCOCC4)n3)cn2)CC1 [Compound 11] | < 1000 | < 1000 | < 1000 |  |  |  | 
29 | CS(=O)(=O)N1CCC(Oc2cc(-c3cnc(N)nc3N)nc(N3CCOCC3)n2)CC1 [Compound 120] | < 1000 | < 1000 | < 10000 |  |  |  | 
30 | COc1cc(Nc2cc(-c3cnc(N)cc3C(F)(F)F)nc(N3CCOCC3)n2)ccc1OC1CCN(C(C)C)CC1 [Compound 553] | < 1000 |  | < 1000 |  |  |  | < 1000
31 | COc1ccc2ncc(Nc3cc(-c4ccc(N)nc4)nc(N4CCOCC4)n3)cc2c1 [Compound 211] |  |  |  | < 1000 | < 10000 | < 1000 | 
32 | Cc1cc(Nc2cc(-c3ccc(N)nc3)nc(N3CCOCC3)n2)ccn1 [Compound 130] | < 1000 | < 1000 | < 1000 |  |  |  | 
33 | CS(=O)(=O)c1ccc2cc(Nc3cc(-c4ccc(N)nc4)nc(N4CCOCC4)n3)cnc2c1 [Compound 149] | < 1000 | < 1000 | < 10000 |  |  |  | 
